Measured values from patent US9296704B2, “Substituted pyrimidines as protein kinase inhibitors” (CELGENE AVILOMICS RESEARCH, INC., priority 2007, dated 2016).

Key:
Type in all cases: biochemical
EGFR (WT) = target: T1, EGFR (WT) (Homo sapiens, UniProt P00533); experiment: Omnia continuous-read kinase assay, EGFR (WT); settings: read-out: EGFR inhibtion
T1 construct: purchased Invitrogen PV3872
Source text: (§1) The protocol below describes continuous-read kinase assays to measure inherent potency of compounds against active forms of EGFR (WT) and EGFR (T790M/L858R) enzymes. The mechanics of the assay platform are best described by the vendor (Invitrogen, Carlsbad, Calif.) on their website at the following URL: http://www.invitrogen.com/content.cfm?pageid=11338 or http://www.invitrogen.com/site/us/en/home/Products-and-Services/Applications/Drug-Discovery/Target-and-Lead-Identification-and-Validation/KinaseBiology/KB-Misc/Biochemical-Assays/Omnia-Kinase-Assays.html.
(§2) Briefly, 10× stocks of EGFR-WT (PV3872) from Invitrogen and EGFR-T790M/L858R (40350) from BPS Bioscience, San Diego, Calif., 1.13×ATP (AS001A) and appropriate Tyr-Sox conjugated peptide substrates (KCZI001) were prepared in 1× kinase reaction buffer consisting of 20 mM Tris, pH 7.5, 5 mM MgCl2, 1 mM EGTA, 5 mM β-glycerophosphate, 5% glycerol (10× stock, KB002A) and 0.2 mM DTT (DS001A). 5 μL of each enzyme were pre-incubated in a Corning (#3574) 384-well, white, non-binding surface microtiter plate (Corning, NY) for 30 min. at 27° C. with a 0.5 μL volume of 50% DMSO and serially diluted compounds prepared in 50% DMSO. Kinase reactions were started with the addition of 45 μL of the ATP/Tyr-Sox peptide substrate mix and monitored every 30-90 seconds for 60 minutes at λex360/λem485 in a Synergy^4 plate reader from BioTek (Winooski, Vt.). At the conclusion of each assay, progress curves from each well were examined for linear reaction kinetics and fit statistics (R^2, 95% confidence interval, absolute sum of squares). Initial velocity (0 minutes to ˜30 minutes) from each reaction was determined from the slope of a plot of relative fluorescence units vs time (minutes) and then plotted against inhibitor concentration to estimate IC50 from log [Inhibitor] vs Response, Variable Slope model in GraphPad Prism from GraphPad Software (San Diego, Calif.).
(§3) The EGFR-WT- and EGFR T790M/L858R-modified optimized reagent conditions are: • [EGFR-WT]=5 nM, [ATP]=[…], [Y12-Sox]=[…]; and [EGFR-T790M/L858R]=3 nM, [ATP]=[…], [Y12-Sox]=[…].

EGFR (T790M/L858R) = target: T2, EGFR (T790M/L858R) (Homo sapiens, UniProt P00533, L858R/T790M); experiment: Omnia continuous-read kinase assay, EGFR (T790M/L858R); settings: read-out: EGFR (T790M/L858R) inhibiton
T2 construct: purchased BPS Bioscience 40350
Source text: as §1, §2, §3

BTK = BTK (Homo sapiens, UniProt Q06187); experiment: Omnia assay for potency against BTK; settings: read-out: BTK Inhibition
Source text: as §1, §2
The Omnia Assay Protocol for potency assessment against BTK is performed in a substantially similar manner as that described in Example 25 above except that the modified BTK-optimized reagent conditions are: • [BTK]=5 nM, [ATP]=[…], [Y5-Sox]=[…] (ATP KMapp ˜[…]).

JAK3 = target: T3, JAK3 (Homo sapiens, UniProt P52333); experiment: Omnia assay for potency against JAK3; settings: read-out: JAK3 Inhibition
T3 sequence (P52333 1-1124): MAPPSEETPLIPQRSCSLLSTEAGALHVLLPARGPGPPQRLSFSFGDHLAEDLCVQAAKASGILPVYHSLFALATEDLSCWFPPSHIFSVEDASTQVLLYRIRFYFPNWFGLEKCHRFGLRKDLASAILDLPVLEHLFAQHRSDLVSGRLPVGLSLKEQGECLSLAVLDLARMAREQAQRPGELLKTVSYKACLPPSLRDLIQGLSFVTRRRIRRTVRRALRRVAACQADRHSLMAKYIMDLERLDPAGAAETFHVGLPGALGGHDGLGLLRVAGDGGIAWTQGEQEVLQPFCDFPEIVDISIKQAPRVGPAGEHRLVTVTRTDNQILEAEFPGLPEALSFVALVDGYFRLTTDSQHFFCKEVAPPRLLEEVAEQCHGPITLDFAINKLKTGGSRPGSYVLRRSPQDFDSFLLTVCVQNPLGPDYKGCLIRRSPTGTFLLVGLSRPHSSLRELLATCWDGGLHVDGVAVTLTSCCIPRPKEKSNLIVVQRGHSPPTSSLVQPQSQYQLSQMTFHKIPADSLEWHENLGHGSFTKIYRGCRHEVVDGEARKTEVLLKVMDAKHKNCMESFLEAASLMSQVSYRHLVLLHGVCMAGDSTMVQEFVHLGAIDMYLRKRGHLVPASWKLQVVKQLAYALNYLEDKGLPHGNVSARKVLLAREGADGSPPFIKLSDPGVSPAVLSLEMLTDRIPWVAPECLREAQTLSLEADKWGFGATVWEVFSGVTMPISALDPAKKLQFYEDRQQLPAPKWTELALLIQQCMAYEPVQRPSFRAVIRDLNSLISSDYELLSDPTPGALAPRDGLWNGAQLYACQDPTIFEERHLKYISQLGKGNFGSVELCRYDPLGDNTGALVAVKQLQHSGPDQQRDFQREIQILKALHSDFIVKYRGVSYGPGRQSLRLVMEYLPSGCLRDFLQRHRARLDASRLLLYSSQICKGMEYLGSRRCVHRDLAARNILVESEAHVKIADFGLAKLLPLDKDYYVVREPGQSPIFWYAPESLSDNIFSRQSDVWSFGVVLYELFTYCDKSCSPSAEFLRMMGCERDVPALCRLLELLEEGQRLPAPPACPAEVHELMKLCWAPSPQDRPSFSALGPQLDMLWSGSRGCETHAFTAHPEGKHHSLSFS
Source text: as §1, §2
The Omnia Assay Protocol for potency assessment against JAK3 is performed in a substantially similar manner as that described in Example 25 above except that the modified JAK3-optimized reagent conditions are: • [JAK3]=5 nM, [ATP]=5 μM, [Y12-Sox]=5 μM (ATP KMapp ˜[…]).

BTK, sequence (Q06187 whole entry): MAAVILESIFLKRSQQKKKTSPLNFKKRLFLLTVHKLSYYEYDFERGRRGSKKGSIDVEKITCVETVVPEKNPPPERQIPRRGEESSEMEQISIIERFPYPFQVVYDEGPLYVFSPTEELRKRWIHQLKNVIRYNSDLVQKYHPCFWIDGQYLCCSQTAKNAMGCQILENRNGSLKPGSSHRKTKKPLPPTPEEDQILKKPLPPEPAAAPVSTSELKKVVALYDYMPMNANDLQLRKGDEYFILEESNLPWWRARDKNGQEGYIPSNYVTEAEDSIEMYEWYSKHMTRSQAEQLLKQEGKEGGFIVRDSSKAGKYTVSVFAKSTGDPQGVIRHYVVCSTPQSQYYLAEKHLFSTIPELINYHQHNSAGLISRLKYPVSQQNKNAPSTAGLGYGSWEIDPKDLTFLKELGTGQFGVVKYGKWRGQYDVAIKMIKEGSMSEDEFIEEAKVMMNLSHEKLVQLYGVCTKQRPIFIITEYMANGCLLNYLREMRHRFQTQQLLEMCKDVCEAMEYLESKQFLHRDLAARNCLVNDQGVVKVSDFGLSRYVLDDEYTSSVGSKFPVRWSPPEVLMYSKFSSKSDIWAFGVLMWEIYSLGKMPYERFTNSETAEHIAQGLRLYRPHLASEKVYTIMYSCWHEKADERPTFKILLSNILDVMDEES
T1 sequence (P00533 25-1210): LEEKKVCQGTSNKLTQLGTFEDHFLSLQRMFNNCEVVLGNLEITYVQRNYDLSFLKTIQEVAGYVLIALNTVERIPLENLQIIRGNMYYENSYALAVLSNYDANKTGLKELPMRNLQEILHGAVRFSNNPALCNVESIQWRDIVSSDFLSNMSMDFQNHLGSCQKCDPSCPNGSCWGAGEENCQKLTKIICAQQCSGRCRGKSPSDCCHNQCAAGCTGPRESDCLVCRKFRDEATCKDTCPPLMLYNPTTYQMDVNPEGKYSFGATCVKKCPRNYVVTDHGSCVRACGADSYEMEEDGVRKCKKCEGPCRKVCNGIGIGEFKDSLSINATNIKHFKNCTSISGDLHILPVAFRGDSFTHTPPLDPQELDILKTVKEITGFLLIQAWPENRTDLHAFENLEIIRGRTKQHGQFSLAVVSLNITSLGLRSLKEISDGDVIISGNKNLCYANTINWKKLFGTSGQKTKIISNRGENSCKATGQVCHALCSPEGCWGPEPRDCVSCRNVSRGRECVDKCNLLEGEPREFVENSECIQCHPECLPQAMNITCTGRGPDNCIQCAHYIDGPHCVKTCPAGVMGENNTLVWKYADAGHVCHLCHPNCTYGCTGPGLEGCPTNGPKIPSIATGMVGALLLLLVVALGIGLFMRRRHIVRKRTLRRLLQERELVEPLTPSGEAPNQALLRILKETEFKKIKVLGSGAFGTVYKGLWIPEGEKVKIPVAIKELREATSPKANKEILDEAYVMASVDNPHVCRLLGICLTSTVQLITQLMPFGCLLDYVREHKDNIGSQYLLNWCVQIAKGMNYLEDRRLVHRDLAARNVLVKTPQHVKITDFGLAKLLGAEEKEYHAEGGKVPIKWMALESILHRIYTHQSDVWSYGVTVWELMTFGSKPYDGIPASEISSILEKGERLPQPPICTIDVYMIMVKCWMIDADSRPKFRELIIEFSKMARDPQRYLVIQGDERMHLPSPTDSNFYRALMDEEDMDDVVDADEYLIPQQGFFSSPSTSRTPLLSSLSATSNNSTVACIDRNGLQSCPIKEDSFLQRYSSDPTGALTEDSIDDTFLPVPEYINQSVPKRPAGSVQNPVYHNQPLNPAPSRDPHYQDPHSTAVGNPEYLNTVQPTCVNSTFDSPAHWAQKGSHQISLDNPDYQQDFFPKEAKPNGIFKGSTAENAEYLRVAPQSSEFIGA
T2 sequence (P00533 25-1210 T790M/L858R): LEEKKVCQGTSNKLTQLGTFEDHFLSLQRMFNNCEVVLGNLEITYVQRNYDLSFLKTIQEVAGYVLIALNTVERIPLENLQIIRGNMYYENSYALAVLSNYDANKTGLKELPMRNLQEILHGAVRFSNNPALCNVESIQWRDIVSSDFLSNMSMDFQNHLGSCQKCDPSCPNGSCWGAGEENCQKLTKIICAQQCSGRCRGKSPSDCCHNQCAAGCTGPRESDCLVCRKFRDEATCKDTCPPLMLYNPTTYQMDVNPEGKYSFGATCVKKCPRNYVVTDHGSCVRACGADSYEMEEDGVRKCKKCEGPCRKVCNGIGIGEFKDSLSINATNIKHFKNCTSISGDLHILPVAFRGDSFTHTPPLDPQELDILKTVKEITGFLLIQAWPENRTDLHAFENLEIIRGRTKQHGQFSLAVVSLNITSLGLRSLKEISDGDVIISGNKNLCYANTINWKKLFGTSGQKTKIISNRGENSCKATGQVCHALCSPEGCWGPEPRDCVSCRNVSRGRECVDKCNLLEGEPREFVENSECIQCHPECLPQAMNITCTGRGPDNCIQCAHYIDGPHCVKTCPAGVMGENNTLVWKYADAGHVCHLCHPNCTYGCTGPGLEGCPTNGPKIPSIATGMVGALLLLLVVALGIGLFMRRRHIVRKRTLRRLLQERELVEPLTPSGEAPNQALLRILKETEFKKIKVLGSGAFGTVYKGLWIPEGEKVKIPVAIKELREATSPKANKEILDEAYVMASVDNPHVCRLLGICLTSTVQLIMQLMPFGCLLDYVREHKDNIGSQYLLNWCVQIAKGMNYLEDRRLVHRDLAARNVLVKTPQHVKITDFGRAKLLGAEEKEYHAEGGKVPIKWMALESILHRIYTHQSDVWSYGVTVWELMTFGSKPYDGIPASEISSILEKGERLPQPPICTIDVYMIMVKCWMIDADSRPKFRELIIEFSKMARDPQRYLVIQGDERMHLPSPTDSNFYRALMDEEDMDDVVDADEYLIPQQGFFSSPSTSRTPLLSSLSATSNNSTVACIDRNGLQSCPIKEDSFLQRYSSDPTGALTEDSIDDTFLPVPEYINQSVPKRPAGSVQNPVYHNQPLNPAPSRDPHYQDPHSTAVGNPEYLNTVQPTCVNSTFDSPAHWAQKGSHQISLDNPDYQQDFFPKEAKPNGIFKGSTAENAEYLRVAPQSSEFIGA

| SMILES | IC50 (EGFR (WT)) | IC50 (EGFR (T790M/L858R)) | IC50 (BTK) | IC50 (JAK3) |
| --- | --- | --- | --- | --- |
| CC(Cl)C(=O)Nc1cccc(Nc2cc(Nc3ccc(F)c(Cl)c3)ncn2)c1 (stereo not shown) [I-50)] | ≤ 0.01 µM | 0.01 to 0.1 µM |  |  |
| CC(Cl)C(=O)Nc1cccc(Nc2cc(Nc3ccc(F)c(Cl)c3)ncn2)c1 (stereo not shown) [I-50, 2-chloro-N-[3-(6-{3-chloro-4-fluorophenyl}aminopyrimidin-4-yl)aminophenyl]propionamide] |  |  | 1 to 10 µM | 0.1 to 1 µM |
| CN(C)C/C=C/C(=O)Nc1cccc(Nc2cc(Nc3ccc(Oc4ccccc4)cc3)ncn2)c1 [I-62, (E)-N-3-[6-(4-phenoxyphenyl)amino-pyrimidin-4-yl]aminophenyl-4-(dimethylamino)but-2-enamide] |  |  | ≤ 0.01 µM | 0.1 to 1 µM |
| C#Cc1cccc(Nc2cc(Nc3cccc(NC(=O)C=C)c3)ncn2)c1 [I-68, N-3-[6-(3-ethynylphenylamino)-pyrimidin-4-yl]aminophenyl-2-propenamide] | ≤ 0.01 µM |  | 0.01 to 0.1 µM | ≤ 0.01 µM |
| O=C(CCl)Nc1cccc(Nc2cc(Oc3ccc(NC(=O)Nc4ccc(Cl)c(C(F)(F)F)c4)cc3)ncn2)c1 [I-69, N-3-[6-(4-[4-[[4-chloro-3-(trifluoromethyl)phenyl]amino]-carbonyl]amino)phenoxypyrimidin-4-yl]aminophenylchloroacetamide] | 0.01 to 0.1 µM |  | 0.1 to 1 µM | 0.1 to 1 µM |
| C=CC(=O)N1CCC(Nc2cc(Nc3ccc(F)c(Cl)c3)ncn2)C1 (stereo not shown) [I-70, 1-(3-(6-(3-chloro-4-fluorophenyamino)pyrimidin-4-ylamino)pyrrolidin-1-yl)prop-2-en-1-one] | ≤ 0.01 µM |  | 0.1 to 1 µM | 0.1 to 1 µM |
| C=CC(=O)N1CCCC(Nc2cc(Nc3ccc(F)c(Cl)c3)ncn2)C1 (stereo not shown) [I-71, 1-(3-(6-(3-chloro-4-fluorophenyamino)pyrimidin-4-ylamino)piperidin-1-yl)prop-2-en-1-one] | ≤ 0.01 µM |  | 1 to 10 µM | 1 to 10 µM |
| CN(C)C/C=C/C(=O)Nc1cccc(Nc2cc(Nc3ccccc3)ncn2)n1 [I-73, (E)-4-(dimethylamino)-N-(6-(6-(phenylamino)pyrimidin-4-ylamino)pyridine-2-yl)but-2-enamide] | ≤ 0.01 µM |  | ≤ 0.01 µM | ≤ 0.01 µM |
| C=CC(=O)Nc1cccc(Nc2cc(Nc3cccc(Oc4ccccc4)c3)ncn2)c1 [I-75, N-(3-(6-(3-phenoxyphenylamino)pyrimidin-4-ylamino)phenyl)acrylamide] | ≤ 0.01 µM |  | ≤ 0.01 µM | 0.1 to 1 µM |
| C=CC(=O)Nc1ccc(Nc2cc(Nc3ccc(Oc4ccccc4)cc3)ncn2)cc1 [I-80, N-4-[6-(4-phenoxyphenyl)amino-pyrimidin-4-yl]aminophenylpropenamide] | 0.1 to 1 µM |  | 1 to 10 µM | ≥ 10 µM |
| C=C(C)C(=O)c1cccc(Nc2cc(Nc3ccc(Oc4ccccc4)cc3)ncn2)c1 [I-83, 2-methyl-1-(3-(6-(4-phenoxyphenylamino)pyrimidin-4-ylamino)phenyl)prop-2-en-1-one] | ≤ 0.01 µM |  | ≤ 0.01 µM |  |
| C=C(C#N)C(O)c1cccc(Nc2cc(Nc3ccc(Oc4ccccc4)cc3)ncn2)c1 (stereo not shown) [I-84] | 0.01 to 0.1 µM |  | 1 to 10 µM | ≥ 10 µM |
| C=CC(=O)N1CCC(Nc2cc(Nc3ccc(Oc4ccccc4)cc3)ncn2)C1 (stereo not shown) [I-85, 1-(3-(6-(4-phenoxyphenylamino)pyrimidin-4-ylamino)pyrrolidin-1-yl)prop-2-en-1-one] | 0.01 to 0.1 µM |  | 0.01 to 0.1 µM | 1 to 10 µM |
| C=CC(=O)N1CCCC(Nc2cc(Nc3ccc(Oc4ccccc4)cc3)ncn2)C1 (stereo not shown) [I-86, 1-(3-(6-(4-phenoxyphenylamino)pyrimidin-4-ylamino)piperidin-1-yl)prop-2-en-1one] | 0.01 to 0.1 µM |  | 0.01 to 0.1 µM | ≥ 10 µM |
| CC(C)=CC(=O)c1cccc(Nc2cc(Nc3ccc(Oc4ccccc4)cc3)ncn2)c1 [I-87, 3-methyl-1-(3-(6-(4-phenoxyphenylamino)pyrimidin-4-ylamino)phenyl)but-2-en-1-one] | 0.01 to 0.1 µM |  | ≥ 10 µM |  |
| C=CC(=O)Nc1cccc(Nc2cc(Oc3ccc(OC)cc3)ncn2)n1 [I-91, N-(6-(6-(4-methoxyphenoxy)pyrimidin-4-ylamino)pyridine-2-yl)acrylamide] | ≤ 0.01 µM |  | ≤ 0.01 µM |  |
| CN(C)C/C=C/C(=O)Nc1cccc(Nc2cc(Oc3ccc(F)c(Cl)c3)ncn2)c1 [I-92)] | ≤ 0.01 µM |  |  |  |
| CN(C)C/C=C/C(=O)Nc1cccc(Nc2cc(Oc3ccc(F)c(Cl)c3)ncn2)c1 [I-92, (E)-N-(3-(6-(3-chloro-4-fluorophenoxy)pyrimidin-4-ylamino)phenyl)-4-(dimethylamino)but-2-enamide] |  |  | 0.01 to 0.1 µM | 0.01 to 0.1 µM |
| C=CC(=O)Nc1cccc(Nc2cc(Oc3ccc(Oc4ccccc4)cc3)ncn2)c1 [I-97, N-(3-(6-(4-phenoxyphenoxy)pyrimidin-4-ylamino)phenyl)acrylamide] | ≤ 0.01 µM |  | 0.1 to 1 µM |  |
| C=CC(=O)Nc1cc(Nc2cc(Oc3ccc(Oc4ccccc4)cc3)ncn2)cc(C(=O)NCCOC)c1 [I-102, 3-acrylamido-N-(2-methoxyethyl)-5-(6-(4-phenoxyphenoxy)pyrimidin-4-ylamino)benzamide] | ≤ 0.01 µM |  | 0.01 to 0.1 µM |  |
| C=CC(=O)Nc1cccc(Nc2cc(Sc3ccc(Oc4ccccc4)cc3)ncn2)c1 [I-103, N-(3-(6-(4-phenoxyphenylthio)pyrimidin-4-ylamino)phenyl)acrylamide] | ≤ 0.01 µM |  | 0.1 to 1 µM |  |
| C=CC(=O)N1CC(C)(C)Oc2ccc(Nc3cc(Oc4cccc(Cl)c4)ncn3)cc21 [I-104, 1-(6-(6-(3-chlorophenoxy)pyrimidin-4-ylamino)-2,2-dimethyl-2H-benzo[b][1,4]oxazin-4(3H)-yl)prop-2-en-1-one] | ≤ 0.01 µM |  | ≤ 0.01 µM |  |
| C=CC(=O)Nc1cc(Nc2cc(Oc3cccc(Cl)c3)ncn2)ccc1N1CCOCC1 [I-105, N-(2-morpholino-5-(6-(3-chlorophenoxy)pyrimidin-4-ylamino)phenyl)acrylamide] | ≤ 0.01 µM |  | 0.01 to 0.1 µM |  |
